This is an account of results in ChEMBL document CHEMBL1158031, “Biscembranes from the soft coral Sarcophyton glaucum” (J Nat Prod, 2006).

The test system of experiment [1] is HL-60. In words: Cytotoxicity against human HL-60 upto 100 uM. The experiment is classed as functional, cell-based.
In experiment [2] the test system is HL-60. The experiment is described as follows: Cytotoxicity against human HL-60. The class given is functional, cell-based.

Calls of active or inactive are those of the source. The calls are words filed in the database; no cut-off is given here.

With `COC(=O)[C@]12CC(=O)[C@H](C(C)C)CC(=O)/C(C)=C/CC/C(C)=C/C(=O)[C@H]1CC(C)=C1C[C@H](O)[C@](C)(O)[C@H]3CC[C@@](C)(O)[C@H](CC/C(C)=C/[C@@H]12)O3`, in experiment [1], the result was inactive.
Same read-out and setting: in the case of `COC(=O)[C@]12CC(=O)[C@H](C(C)C)CC(=O)/C(C)=C/CC/C(C)=C/C(=O)[C@H]1CC(C)=C1C[C@H](OC(C)=O)[C@](C)(O)[C@H]3CC[C@@](C)(O)[C@H](CC/C(C)=C/[C@@H]12)O3` it was “inactive”.
As usually defined, the IC50 is the concentration needed to halve the response being measured. The low end stands for inhibition by little substance, the high end for a need for much substance. Take `COC(=O)[C@]12CC(=O)[C@H](C(C)C)CC(=O)/C(C)=C/CC/C(C)=C\C(=O)[C@H]1CC(C)=C1C[C@H](OC(C)=O)[C@](C)(O)[C@H]3CC[C@@](C)(O)[C@H](CC/C(C)=C/[C@@H]12)O3` [BISGLAUCUMLIDE C]: in experiment [2], it took 33.7 µM to reach half-maximal inhibition (IC50).
On the same count and under the same terms, in the case of `COC(=O)[C@]12CC(=O)[C@H](C(C)C)CC(=O)/C(C)=C\CC/C(C)=C\C(=O)[C@H]1CC(C)=C1C[C@H](OC(C)=O)[C@](C)(O)[C@H]3CC[C@@](C)(O)[C@H](CC/C(C)=C/[C@@H]12)O3` [BISGLAUCUMLIDE D] it was 42.3 µM.
